Source: paper PMC7665585, “Antidepressive effect of an inward rectifier K^+ channel blocker peptide, tertiapin-RQ” (PLoS ONE, 2020)
Bridge positions count the residues as written; N and C are the ends. Peptide text beside a SMILES is read from it.

Target: T1, rat ROMK (Rattus norvegicus, UniProt P35560)
T1 construct: expressed in transfected cells; host or cells: 293T cell line 208-4 (lentiviral transduction, GFP coexpressed)
T1 sequence (P35560 1-391): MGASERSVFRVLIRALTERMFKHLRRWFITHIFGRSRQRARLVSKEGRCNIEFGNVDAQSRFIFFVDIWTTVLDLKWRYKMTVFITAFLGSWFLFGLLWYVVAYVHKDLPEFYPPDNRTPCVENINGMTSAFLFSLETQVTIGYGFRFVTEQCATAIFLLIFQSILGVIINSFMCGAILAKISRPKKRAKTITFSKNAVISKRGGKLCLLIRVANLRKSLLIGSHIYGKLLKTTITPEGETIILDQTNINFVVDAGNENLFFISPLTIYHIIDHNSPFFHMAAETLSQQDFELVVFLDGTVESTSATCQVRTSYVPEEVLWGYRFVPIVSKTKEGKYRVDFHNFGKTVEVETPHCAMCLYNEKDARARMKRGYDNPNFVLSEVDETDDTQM
Assay: Whole-cell patch-clamp of ROMK currents in 208–4 cells
Type: cell-based
Conditions: blockade at 1 μM estimated from fitted Hill curve (four parameters), whole-cell conductance, n = 3–6, read-out: Activity (ROMK channel blocking activity, percentage of blockade at 1 μM)
How it was run: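 ROMK stably expressed in 208–4 cells; GIRK transiently in 293T, recorded 24 h post-transfection; 25°C, Tyrode (high-K+ 50 mM for GIRK), K-aspartate/KCl pipette with 3 mM MgATP. Steps −150 to 10 mV from −70 mV; currents 60 s after peptide; conductance from I-V slope −140 to −100 mV, Ba2+-resistant current subtracted, normalized to 0 μM TPN.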

Row | Structure (SMILES) | inhibition at 1 µM [%]
1 | CC[C@H](C)[C@@H]1NC(=O)[C@H](C)NC(=O)[C@H](C)NC(=O)[C@H](CC(N)=O)NC(=O)[C@@H]2CSSC[C@@H](C(=O)NCC(=O)N[C@@H](CCCCN)C(=O)N[C@@H](CCCCN)C(N)=O)NC(=O)[C@H](CCCCN)NC(=O)[C@H](CCCCN)NC(=O)[C@H](Cc3c[nH]c4ccccc34)NC(=O)[C@H](CSSC[C@H](NC(=O)[C@H](CC(C)C)NC(=O)[C@H](C)N)C(=O)N[C@@H](CC(N)=O)C(=O)N2)NC(=O)[C@H](CCC(N)=O)NC(=O)[C@H](Cc2c[nH]cn2)NC(=O)[C@@H]2CCCN2C(=O)[C@H]([C@@H](C)CC)NC1=O [Peptide 58, TPN-RQ(R7A/R8A)] (H-ALCNCNAAIIPHQCWKKCGKK-NH2; disulfide 3-14, 5-18) | < 20
2 | CC[C@H](C)[C@@H]1NC(=O)[C@H](C)NC(=O)[C@H](CCCNC(=N)N)NC(=O)[C@H](CC(N)=O)NC(=O)[C@@H]2CSSC[C@@H](C(=O)NCC(=O)N[C@@H](CCCCN)C(=O)N[C@@H](CCCCN)C(N)=O)NC(=O)[C@H](CCCCN)NC(=O)[C@H](CCCCN)NC(=O)[C@H](Cc3c[nH]c4ccccc34)NC(=O)[C@H](CSSC[C@H](NC(=O)[C@H](CC(C)C)NC(=O)[C@H](C)N)C(=O)N[C@@H](CC(N)=O)C(=O)N2)NC(=O)[C@H](CCC(N)=O)NC(=O)[C@H](Cc2c[nH]cn2)NC(=O)[C@@H]2CCCN2C(=O)[C@H]([C@@H](C)CC)NC1=O [Peptide 59, TPN-RQ(R8A)] (H-ALCNCNRAIIPHQCWKKCGKK-NH2; disulfide 3-14, 5-18) | 60 to 80
3 | CC[C@H](C)[C@@H]1NC(=O)[C@H](C)NC(=O)[C@H](CCCNC(=N)N)NC(=O)[C@H](CCCNC(=N)N)NC(=O)[C@H](CC(N)=O)NC(=O)[C@@H]2CSSC[C@@H](C(=O)NCC(=O)N[C@@H](CCCCN)C(=O)N[C@@H](CCCCN)C(N)=O)NC(=O)[C@H](CCCCN)NC(=O)[C@H](CCCCN)NC(=O)[C@H](Cc3c[nH]c4ccccc34)NC(=O)[C@H](CSSC[C@H](NC(=O)[C@H](CC(C)C)NC(=O)[C@H](C)N)C(=O)N[C@@H](CC(N)=O)C(=O)N2)NC(=O)[C@H](CCC(N)=O)NC(=O)[C@H](Cc2c[nH]cn2)NC(=O)[C@@H]2CCCN2C1=O [Peptide 60, TPN-RQ(I9A)] (H-ALCNCNRRAIPHQCWKKCGKK-NH2; disulfide 3-14, 5-18) | 40 to 60
4 | CC[C@H](C)[C@@H]1NC(=O)[C@H](CCCNC(=N)N)NC(=O)[C@H](CCCNC(=N)N)NC(=O)[C@H](CC(N)=O)NC(=O)[C@@H]2CSSC[C@@H](C(=O)NCC(=O)N[C@@H](CCCCN)C(=O)N[C@@H](CCCCN)C(N)=O)NC(=O)[C@H](CCCCN)NC(=O)[C@H](CCCCN)NC(=O)[C@H](Cc3c[nH]c4ccccc34)NC(=O)[C@H](CSSC[C@H](NC(=O)[C@H](CC(C)C)NC(=O)[C@H](C)N)C(=O)N[C@@H](CC(N)=O)C(=O)N2)NC(=O)[C@H](CCC(N)=O)NC(=O)[C@H](Cc2c[nH]cn2)NC(=O)[C@@H]2CCCN2C(=O)[C@H](C)NC1=O [Peptide 61, TPN-RQ(I10A)] (H-ALCNCNRRIAPHQCWKKCGKK-NH2; disulfide 3-14, 5-18) | 20 to 40
5 | CC[C@H](C)[C@@H]1NC(=O)[C@H](CCCNC(=N)N)NC(=O)[C@H](CCCNC(=N)N)NC(=O)[C@H](CC(N)=O)NC(=O)[C@@H]2CSSC[C@@H](C(=O)NCC(=O)N[C@@H](CCCCN)C(=O)N[C@@H](CCCCN)C(N)=O)NC(=O)[C@H](CCCCN)NC(=O)[C@H](CCCCN)NC(=O)[C@H](Cc3c[nH]c4ccccc34)NC(=O)[C@H](CSSC[C@H](NC(=O)[C@H](CC(C)C)NC(=O)[C@H](C)N)C(=O)N[C@@H](CC(N)=O)C(=O)N2)NC(=O)[C@H](CCC(N)=O)NC(=O)[C@H](Cc2c[nH]cn2)NC(=O)[C@H](C)NC(=O)[C@H]([C@@H](C)CC)NC1=O [Peptide 62, TPN-RQ(P11A)] (H-ALCNCNRRIIAHQCWKKCGKK-NH2; disulfide 3-14, 5-18) | > 80
6 | CC[C@H](C)[C@@H]1NC(=O)[C@H](CCCNC(=N)N)NC(=O)[C@H](CCCNC(=N)N)NC(=O)[C@H](CC(N)=O)NC(=O)[C@@H]2CSSC[C@@H](C(=O)NCC(=O)N[C@@H](CCCCN)C(=O)N[C@@H](CCCCN)C(N)=O)NC(=O)[C@H](CCCCN)NC(=O)[C@H](CCCCN)NC(=O)[C@H](Cc3c[nH]c4ccccc34)NC(=O)[C@H](CSSC[C@H](NC(=O)[C@H](CC(C)C)NC(=O)[C@H](C)N)C(=O)N[C@@H](CC(N)=O)C(=O)N2)NC(=O)[C@H](CCC(N)=O)NC(=O)[C@H](C)NC(=O)[C@@H]2CCCN2C(=O)[C@H]([C@@H](C)CC)NC1=O [Peptide 63, TPN-RQ(H12A)] (H-ALCNCNRRIIPAQCWKKCGKK-NH2; disulfide 3-14, 5-18) | 40 to 60
7 | CC[C@H](C)[C@@H]1NC(=O)[C@H](CCCNC(=N)N)NC(=O)[C@H](CCCNC(=N)N)NC(=O)[C@H](CC(N)=O)NC(=O)[C@@H]2CSSC[C@@H](C(=O)NCC(=O)N[C@@H](CCCCN)C(=O)N[C@@H](CCCCN)C(N)=O)NC(=O)[C@H](CCCCN)NC(=O)[C@H](CCCCN)NC(=O)[C@H](Cc3c[nH]c4ccccc34)NC(=O)[C@H](CSSC[C@H](NC(=O)[C@H](CC(C)C)NC(=O)[C@H](C)N)C(=O)N[C@@H](CC(N)=O)C(=O)N2)NC(=O)[C@H](C)NC(=O)[C@H](Cc2c[nH]cn2)NC(=O)[C@@H]2CCCN2C(=O)[C@H]([C@@H](C)CC)NC1=O [Peptide 64, TPN-RQ(Q13A)] (H-ALCNCNRRIIPHACWKKCGKK-NH2; disulfide 3-14, 5-18) | 20 to 40
8 | CC[C@H](C)[C@@H]1NC(=O)[C@H](CCCNC(=N)N)NC(=O)[C@H](CCCNC(=N)N)NC(=O)[C@H](CC(N)=O)NC(=O)[C@@H]2CSSC[C@@H](C(=O)NCC(=O)N[C@@H](CCCCN)C(=O)N[C@@H](CCCCN)C(N)=O)NC(=O)[C@H](CCCCN)NC(=O)[C@H](CCCCN)NC(=O)[C@H](C)NC(=O)[C@H](CSSC[C@H](NC(=O)[C@H](CC(C)C)NC(=O)[C@H](C)N)C(=O)N[C@@H](CC(N)=O)C(=O)N2)NC(=O)[C@H](CCC(N)=O)NC(=O)[C@H](Cc2c[nH]cn2)NC(=O)[C@@H]2CCCN2C(=O)[C@H]([C@@H](C)CC)NC1=O [Peptide 65, TPN-RQ(W15A)] (H-ALCNCNRRIIPHQCAKKCGKK-NH2; disulfide 3-14, 5-18) | 20 to 40
9 | CC[C@H](C)[C@@H]1NC(=O)[C@H](CCCNC(=N)N)NC(=O)[C@H](CCCNC(=N)N)NC(=O)[C@H](CC(N)=O)NC(=O)[C@@H]2CSSC[C@@H](C(=O)NCC(=O)N[C@@H](CCCCN)C(=O)N[C@@H](CCCCN)C(N)=O)NC(=O)[C@H](C)NC(=O)[C@H](C)NC(=O)[C@H](Cc3c[nH]c4ccccc34)NC(=O)[C@H](CSSC[C@H](NC(=O)[C@H](CC(C)C)NC(=O)[C@H](C)N)C(=O)N[C@@H](CC(N)=O)C(=O)N2)NC(=O)[C@H](CCC(N)=O)NC(=O)[C@H](Cc2c[nH]cn2)NC(=O)[C@@H]2CCCN2C(=O)[C@H]([C@@H](C)CC)NC1=O [Peptide 66, TPN-RQ(K16A/K17A)] (H-ALCNCNRRIIPHQCWAACGKK-NH2; disulfide 3-14, 5-18) | 20 to 40
10 | CC[C@H](C)[C@@H]1NC(=O)[C@H](CCCNC(=N)N)NC(=O)[C@H](CCCNC(=N)N)NC(=O)[C@H](CC(N)=O)NC(=O)[C@@H]2CSSC[C@@H](C(=O)N[C@@H](C)C(=O)N[C@@H](CCCCN)C(=O)N[C@@H](CCCCN)C(N)=O)NC(=O)[C@H](CCCCN)NC(=O)[C@H](CCCCN)NC(=O)[C@H](Cc3c[nH]c4ccccc34)NC(=O)[C@H](CSSC[C@H](NC(=O)[C@H](CC(C)C)NC(=O)[C@H](C)N)C(=O)N[C@@H](CC(N)=O)C(=O)N2)NC(=O)[C@H](CCC(N)=O)NC(=O)[C@H](Cc2c[nH]cn2)NC(=O)[C@@H]2CCCN2C(=O)[C@H]([C@@H](C)CC)NC1=O [Peptide 67, TPN-RQ(G19A)] (H-ALCNCNRRIIPHQCWKKCAKK-NH2; disulfide 3-14, 5-18) | 60 to 80
11 | CC[C@H](C)[C@@H]1NC(=O)[C@H](CCCNC(=N)N)NC(=O)[C@H](CCCNC(=N)N)NC(=O)[C@H](CC(N)=O)NC(=O)[C@@H]2CSSC[C@@H](C(=O)NCC(=O)N[C@@H](C)C(=O)N[C@@H](CCCCN)C(N)=O)NC(=O)[C@H](CCCCN)NC(=O)[C@H](CCCCN)NC(=O)[C@H](Cc3c[nH]c4ccccc34)NC(=O)[C@H](CSSC[C@H](NC(=O)[C@H](CC(C)C)NC(=O)[C@H](C)N)C(=O)N[C@@H](CC(N)=O)C(=O)N2)NC(=O)[C@H](CCC(N)=O)NC(=O)[C@H](Cc2c[nH]cn2)NC(=O)[C@@H]2CCCN2C(=O)[C@H]([C@@H](C)CC)NC1=O [Peptide 68, TPN-RQ(K20A)] (H-ALCNCNRRIIPHQCWKKCGAK-NH2; disulfide 3-14, 5-18) | 40 to 60
12 | CC[C@H](C)[C@@H]1NC(=O)[C@H](CCCNC(=N)N)NC(=O)[C@H](CCCNC(=N)N)NC(=O)[C@H](CC(N)=O)NC(=O)[C@@H]2CSSC[C@@H](C(=O)NCC(=O)N[C@@H](CCCCN)C(=O)N[C@@H](C)C(N)=O)NC(=O)[C@H](CCCCN)NC(=O)[C@H](CCCCN)NC(=O)[C@H](Cc3c[nH]c4ccccc34)NC(=O)[C@H](CSSC[C@H](NC(=O)[C@H](CC(C)C)NC(=O)[C@H](C)N)C(=O)N[C@@H](CC(N)=O)C(=O)N2)NC(=O)[C@H](CCC(N)=O)NC(=O)[C@H](Cc2c[nH]cn2)NC(=O)[C@@H]2CCCN2C(=O)[C@H]([C@@H](C)CC)NC1=O [Peptide 69, TPN-RQ(K21A)] (H-ALCNCNRRIIPHQCWKKCGKA-NH2; disulfide 3-14, 5-18) | 40 to 60
